How the values were obtained:
Test in all cases: Challenge testing against pathogenic fungi, growth rating in broth tubes
Type in all cases: cell-based
Parameters in all cases: key: 0: No visible growth; 1: Some growth in tube; 2: Moderate growth in tube; 3: Good growth in tube; 4: Extreme growth in tube
[1] = tested on: Microsporum canis (ATTC 9084); conditions: Microsporum canis
Experimental: (§1) Both Microsporum canis and Trichophyton rubrum were grown on Sabouraud dextrose broth, while Malassezia fufur was grown in Sabouraud dextrose broth supplemented with 2% (v/v) of olive oil and 0.2% (v/v) of Tween™ 80; incubation was at 22°±2° C. under continuous agitation by stirring for 10 days. The organisms were grown to a density of between 1.0×10^3 to 1.0×10^4 cfu/g. The actual inoculation cell density of these challenges were determined by diluting in sterile buffer water and (spread-plate method) plating for enumeration.
(§2) Challenge organisms were used to inoculate tubes of 1,4-CHDM-D90 test concentrations prepared in Sabouraud dextrose broth (or Sabouraud dextrose broth supplemented with olive oil-Tween™ 80 with M. furfur). The inoculations were in the amount of 1.5 mL aliquots of each culture with static incubation at 22±2° C. Subcultures were made at 3-, 14- and 30-day increments. All challenges were conducted in triplicate. In the case of M. canis, the growth response was assessed by the visual presence/absence of growth in the tubes; in the case of T. rubrum, a respiratory (redox) dye (0.2% w/v aqueous INT solution: 2-[4-iodophenyl)-3-4-nitrophenyl]-5-phenyl tetrazolium chloride) was added to the tubes, turning red if the organism was viable; and, finally, in the case of M. furfur, the growth response was assessed based upon pellicle formation in the tubes at the meniscus. The test formulations and challenge test results, as well as 30-day MICs (Minimum Inhibitory Concentration), are in Tables 7-9 for the three organisms using the following growth rating system:
(§3) • 0: No visible growth • 1: Some growth in tube • 2: Moderate growth in tube • 3: Good growth in tube • 4: Extreme growth in tube

[2] = tested on: Trichophyton rubrum (ATCC 10218); conditions: Trichophyton rubrum
Experimental: as §1, §2, §3

[3] = tested on: Malassezia furfur (ATCC 96809); conditions: Malassezia furfur
Experimental: as §1, §2, §3

[4] = test concentration 0.5%, 3 days
[5] = test concentration 0.5%, 14 days
[6] = test concentration 0.5%, 30 days
[7] = test concentration 1.25%, 3 days
[8] = test concentration 1.25%, 14 days
[9] = test concentration 1.25%, 30 days
[10] = test concentration 2.5%, 3 days
[11] = test concentration 2.5%, 14 days
[12] = test concentration 2.5%, 30 days

OCC1CCC(CO)CC1 (stereo not drawn) [1,4-CHDM-D90, 1,4-cyclohexanedimethanol]
Growth Rating [1, 4]: 2 | Growth Rating [1, 5]: 1 | Growth Rating [1, 6]: 1 | Growth Rating [1, 7]: 2 | Growth Rating [1, 8]: 1 | Growth Rating [1, 9]: 1 | Growth Rating [1, 10]: 2 | Growth Rating [1, 11]: 0 | Growth Rating [1, 12]: 0 | Growth Rating ([1]; test concentration 5%, 3 days): 0/0/0 | Growth Rating ([1]; test concentration 5%, 14 days): 0/0/0 | Growth Rating ([1]; test concentration 5%, 30 days): 0/0/0 | Growth Rating [2, 4]: 1/1/1 | Growth Rating [2, 5]: 1/1/1 | Growth Rating [2, 6]: 1/1/1 | Growth Rating [2, 7]: 0/0/0 | Growth Rating [2, 8]: 0/0/0 | Growth Rating [2, 9]: 0/0/0 | Growth Rating [2, 10]: 0/0/0 | Growth Rating [2, 11]: 0/0/0 | Growth Rating [2, 12]: 0/0/0 | Growth Rating ([2]; test concentration 5%, 3 days): 1 | Growth Rating ([2]; test concentration 5%, 14 days): 0 | Growth Rating ([2]; test concentration 5%, 30 days): 0 | Growth Rating [3, 4]: 0 | Growth Rating [3, 5]: 1 | Growth Rating [3, 6]: 2 | Growth Rating [3, 7]: 0/0/0 | Growth Rating [3, 8]: 0/0/0 | Growth Rating [3, 9]: 0/0/0 | Growth Rating [3, 10]: 0/0/0 | Growth Rating [3, 11]: 0/0/0 | Growth Rating [3, 12]: 0/0/0 | Growth Rating ([3]; test concentration 5%, 3 days): 0/0/0 | Growth Rating ([3]; test concentration 5%, 14 days): 0/0/0 | Growth Rating ([3]; test concentration 5%, 30 days): 0/0/0

Reference: patent US20100160454A1, “ANTIMICROBIAL AGENTS, COMPOSITIONS AND PRODUCTS CONTAINING THE SAME, AND METHODS OF USING THE COMPOSITIONS AND PRODUCTS” (Eastman Chemical Company, priority 2008, published 2010)
